Laboratory results: US20070128217A1 (priority 2003, published 2007)

How the values were obtained:
[1] = system: rabbit serum obtained by immunizing a rabbit with the SARS-CoV strain Frankfurt 1; type: binding; set-up: Binding of a rabbit serum to linear peptides / Binding of a rabbit serum to looped peptides / Rabbit serum linear peptides / Rabbit serum looped peptides / Binding of a rabbit serum to linear peptides of protein N of SARS-CoV Urbani (Rabbit serum linear peptides) / Binding of a rabbit serum to looped/cyclic peptides of protein N of SARS-CoV Urbani (Rabbit serum looped peptides): unit not given here
[2] = system: recombinant human anti-SARS-CoV antibody 03-018; type: binding; set-up: Binding of antibody 03-018 to linear peptides of the N protein of SARS-CoV Urbani / Binding of antibody 03-018 to looped/cyclic peptides of the N protein of SARS-CoV Urbani: unit not given here
[3] = system: control sera (pooled serum of ten healthy LUMC hospital workers; commercial negative donor pooled serum from the Dutch bloodbank); type: binding, human; set-up: Binding of Control serum LUMC to linear peptides / Binding of Control serum Blood-bank to linear peptides / Binding of Control serum LUMC to looped peptides / Binding of Control Serum Blood-Bank to Looped peptides / Binding of Control serum LUMC to linear peptides of the protein M of SARS-CoV Urbani / Binding of Control serum Blood-bank to linear peptides of the protein M of SARS-CoV Urbani / Binding of Control serum LUMC to looped peptides of the protein M of SARS-CoV Urbani / Binding of Control Serum Blood-Bank to Looped peptides of the protein M of SARS-CoV Urbani: unit not given here
[4] = system: antibodies in sera from SARS patients (sera 1a, 1b, 2, 6, 37, 62, London, SARS-yellow, SARS-green); type: binding, human; set-up: Binding of serum 6 to linear peptides of protein X1 of SARS-CoV Urbani / Binding of serum 37 to linear peptides of protein X1 of SARS-CoV Urbani / Binding of serum 6 to looped/cyclic peptide (PEPSCAN-ELISA) / Binding of serum 37 to looped/cyclic peptide (PEPSCAN-ELISA) / Binding of serum 37 to looped/cyclic peptides of protein X1 of SARS-CoV Urbani / Binding of serum 6 to linear peptides of protein X2 / Binding of serum 37 to linear peptides of protein X2 / Binding of serum 37 to looped/cyclic peptides of protein X2 of SARS-CoV Urbani / Binding of serum 6 to linear peptides of protein M of SARS-CoV Urbani / Binding of serum 37 to linear peptides of protein M of SARS-CoV Urbani / Binding of serum 6 to looped/cyclic peptides of protein M of SARS-CoV Urbani / Binding of serum 37 to looped/cyclic peptides of protein M of SARS-CoV Urbani / Binding of serum 6 to linear peptides of protein X3 of SARS-CoV Urbani / Binding of serum 37 to linear peptides of protein X3 of SARS-CoV Urbani / Binding of serum 37 to looped/cyclic peptides of protein X3 of SARS-CoV Urbani / Binding of serum 6 to linear peptides of protein X4 of SARS-CoV Urbani / Binding of serum 37 to linear peptides of protein X4 of SARS-CoV Urbani / Binding of serum 37 to looped/cyclic peptides of protein X4 of SARS-CoV Urbani / Binding of serum 6 to linear peptides of protein X5 of SARS-CoV Urbani / Binding of serum 37 to linear peptides of protein X5 of SARS-CoV Urbani / Binding of serum 37 to looped/cyclic peptides of protein X5 of SARS-CoV Urbani / Binding of serum 6 to linear peptides of protein N of SARS-CoV Urbani / Binding of serum 37 to linear peptides of protein N of SARS-CoV Urbani / Binding of serum 6 to linear peptide (PEPSCAN-ELISA) / Binding of serum 1a to looped/cyclic peptides of protein N of SARS-CoV Urbani / Binding of serum 1b to looped/cyclic peptides of protein N of SARS-CoV Urbani / Binding of serum 2 to looped/cyclic peptides of protein N of SARS-CoV Urbani / Binding of serum 6 to looped/cyclic peptides of protein N of SARS-CoV Urbani / Binding of serum 37 to looped/cyclic peptides of protein N of SARS-CoV Urbani / Binding of serum 62 to looped/cyclic peptides of protein N of SARS-CoV Urbani / Binding of serum London to looped/cyclic peptides of protein N of SARS-CoV Urbani / Binding of serum SARS-green to looped/cyclic peptides of protein N of SARS-CoV Urbani: unit not given here

| Sequence | Binding of a rabbit serum to linear peptides of protein N of SARS-CoV Urbani (Rabbit serum linear peptides) [1] | Binding of a rabbit serum to looped/cyclic peptides of protein N of SARS-CoV Urbani (Rabbit serum looped peptides) [1] | Binding of antibody 03-018 to linear peptides of the N protein of SARS-CoV Urbani [2] | Binding of antibody 03-018 to looped/cyclic peptides of the N protein of SARS-CoV Urbani [2] | Binding of serum 1a to linear peptides of protein N of SARS-CoV Urbani [4] | Binding of serum 1a to looped/cyclic peptides of protein N of SARS-CoV Urbani [4] | Binding of serum 1b to linear peptides of protein N of SARS-CoV Urbani [4] | Binding of serum 1b to looped/cyclic peptides of protein N of SARS-CoV Urbani [4] | Binding of serum 2 to linear peptides of protein N of SARS-CoV Urbani [4] | Binding of serum 2 to looped/cyclic peptides of protein N of SARS-CoV Urbani [4] | Binding of serum 6 to linear peptides of protein N of SARS-CoV Urbani [4] | Binding of serum 6 to looped/cyclic peptides of protein N of SARS-CoV Urbani [4] | Binding of serum 37 to linear peptides of protein N of SARS-CoV Urbani [4] | Binding of serum 37 to looped/cyclic peptides of protein N of SARS-CoV Urbani [4] | Binding of serum 62 to linear peptides of protein N of SARS-CoV Urbani [4] | Binding of serum 62 to looped/cyclic peptides of protein N of SARS-CoV Urbani [4] | Binding of serum London to linear peptides of protein N of SARS-CoV Urbani [4] | Binding of serum London to looped/cyclic peptides of protein N of SARS-CoV Urbani [4] | Binding of serum SARS-green to linear peptides of protein N of SARS-CoV Urbani [4] | Binding of serum SARS-green to looped/cyclic peptides of protein N of SARS-CoV Urbani [4] | further results |
| --- | --- | --- | --- | --- | --- | --- | --- | --- | --- | --- | --- | --- | --- | --- | --- | --- | --- | --- | --- | --- | --- |
| RRPQGLPNNTASWFT | 0.1 | 0.4 | 0.1 | 0.2 | 0.2 | 0.4 | 0.1 | 0.3 | 0.1 | 0.5 | 0.1 | 0.3 | 0.6 | 0.6 | 0.6 | 0.5 | 0.4 | 0.4 | 0.2 | 0.6 | Binding of Control Serum Blood-Bank to Looped peptides [3]: 0.7; Binding of Control serum Blood-bank to linear peptides [3]: 0.5; Binding of Control serum LUMC to linear peptides [3]: 0.7; Binding of Control serum LUMC to looped peptides [3]: 0.6; Binding of serum SARS-yellow to linear peptides of protein N of SARS-CoV Urbani [4]: 0.6; Binding of serum SARS-yellow to looped/cyclic peptides of protein N of SARS-CoV Urbani [4]: 0.5 |
| KHIDAYKTFPPTEPK | 0.1 | 0.2 | 0.1 | 0.2 | 0.3 | 0.2 | 0.1 | 0.1 | 0.3 | 0.2 | 0.2 | 0.1 | 0.7 | 0.4 | 0.8 | 0.3 | 0.5 | 0.3 | 0.5 | 0.1 | Control Serum Blood-Bank Looped peptides [3]: 0.3; Control serum Blood-bank linear peptides [3]: 0.8; Control serum LUMC linear peptides [3]: 0.7; Control serum LUMC looped peptides [3]: 0.3; Binding of serum SARS-yellow to linear peptides of protein N of SARS-CoV Urbani [4]: 0.8; Binding of serum SARS-yellow to looped/cyclic peptides of protein N of SARS-CoV Urbani [4]: 0.1 |
| EPKKDKKKKTDEAQP | 0.2 | 0.3 | 0.1 | 0.2 | 0.2 | 0.2 | 0.1 | 0.1 | 2.4 | 2.1 | 0.2 | 0.1 | 0.7 | 0.4 | 0.7 | 0.3 | 0.7 | 0.3 | 0.5 | 0.0 | Control Serum Blood-Bank Looped peptides [3]: 0.5; Control serum Blood-bank linear peptides [3]: 0.8; Control serum LUMC linear peptides [3]: 0.8; Control serum LUMC looped peptides [3]: 0.3; Binding of serum SARS-yellow to linear peptides of protein N of SARS-CoV Urbani [4]: 0.6; Binding of serum SARS-yellow to looped/cyclic peptides of protein N of SARS-CoV Urbani [4]: 0.1 |
| PSASAFFGMSRIGME | 0.1 | 0.3 | 0.1 | 0.2 | 0.2 | 0.4 | 0.1 | 0.3 | 0.1 | 0.3 | 0.1 | 0.2 | 0.6 | 0.6 | 0.5 | 0.4 | 0.5 | 0.3 | 0.1 | 0.3 | Control Serum Blood-Bank Looped peptides [3]: 0.4; Control serum Blood-bank linear peptides [3]: 0.6; Control serum LUMC linear peptides [3]: 0.6; Control serum LUMC looped peptides [3]: 0.5; Binding of serum SARS-yellow to linear peptides of protein N of SARS-CoV Urbani [4]: 0.6; Binding of serum SARS-yellow to looped/cyclic peptides of protein N of SARS-CoV Urbani [4]: 0.4 |
